Experimental data as given in PubChem BioAssay AID504473 (NMMLSC, 2011).
Activity calls are given as the source filed them.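 How the source made its calls: active means GFP ratio to DMSO above 1.5 or below 0.66; inactive means the rest.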

Legend:
Experiment in all cases: expression changes of rapamycin-responsive GFP fusion proteins, S. cerevisiae, GFP-tagged clone panel, flow cytometry (AID 504473);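 further: median GFP fluorescence of the cells measured by high-throughput flow cytometry; test concentration not given here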
[1] = target: General amino acid permease AGP1 (Saccharomyces cerevisiae S288c) (UniProt P25376); settings: S. cerevisiae GFP-tagged strains, 3 h, YCL025C
YAL060W = settings: S. cerevisiae GFP-tagged strains, 3 h
YAL061W = settings: S. cerevisiae GFP-tagged strains, 3 h
YBL087C = settings: S. cerevisiae GFP-tagged strains, 3 h
YBR072W = settings: S. cerevisiae GFP-tagged strains, 3 h
YBR139W = settings: S. cerevisiae GFP-tagged strains, 3 h
YBR208C = settings: S. cerevisiae GFP-tagged strains, 3 h
YBR248C = settings: S. cerevisiae GFP-tagged strains, 3 h
YCL064C = settings: S. cerevisiae GFP-tagged strains, 3 h
YCR002C = settings: S. cerevisiae GFP-tagged strains, 3 h
YCR005C = settings: S. cerevisiae GFP-tagged strains, 3 h
YDL130W = settings: S. cerevisiae GFP-tagged strains, 3 h
YDL204W = settings: S. cerevisiae GFP-tagged strains, 3 h
YDL205C = settings: S. cerevisiae GFP-tagged strains, 3 h
YDR070C = settings: S. cerevisiae GFP-tagged strains, 3 h
YDR382W = settings: S. cerevisiae GFP-tagged strains, 3 h
YDR399W = settings: S. cerevisiae GFP-tagged strains, 3 h
YDR453C = settings: S. cerevisiae GFP-tagged strains, 3 h
YEL007W = settings: S. cerevisiae GFP-tagged strains, 3 h
YEL060C = settings: S. cerevisiae GFP-tagged strains, 3 h
YEL063C = settings: S. cerevisiae GFP-tagged strains, 3 h
YEL071W = settings: S. cerevisiae GFP-tagged strains, 3 h
YER081W = settings: S. cerevisiae GFP-tagged strains, 3 h
YER117W = settings: S. cerevisiae GFP-tagged strains, 3 h
YER151C = settings: S. cerevisiae GFP-tagged strains, 3 h
YER156C = settings: S. cerevisiae GFP-tagged strains, 3 h
YFR031C-A = settings: S. cerevisiae GFP-tagged strains, 3 h
YFR053C = settings: S. cerevisiae GFP-tagged strains, 3 h
YGL036W = settings: S. cerevisiae GFP-tagged strains, 3 h
YGL062W = settings: S. cerevisiae GFP-tagged strains, 3 h
YGL135W = settings: S. cerevisiae GFP-tagged strains, 3 h
YGL147C = settings: S. cerevisiae GFP-tagged strains, 3 h
YGR019W = settings: S. cerevisiae GFP-tagged strains, 3 h
YGR034W = settings: S. cerevisiae GFP-tagged strains, 3 h
YGR088W = settings: S. cerevisiae GFP-tagged strains, 3 h
YGR121C = settings: S. cerevisiae GFP-tagged strains, 3 h
YHL021C = settings: S. cerevisiae GFP-tagged strains, 3 h
YHR018C = settings: S. cerevisiae GFP-tagged strains, 3 h
YHR087W = settings: S. cerevisiae GFP-tagged strains, 3 h
YHR141C = settings: S. cerevisiae GFP-tagged strains, 3 h
YHR144C = settings: S. cerevisiae GFP-tagged strains, 3 h
YHR203C = settings: S. cerevisiae GFP-tagged strains, 3 h
YIL043C = settings: S. cerevisiae GFP-tagged strains, 3 h
YIL051C = settings: S. cerevisiae GFP-tagged strains, 3 h
YIL052C = settings: S. cerevisiae GFP-tagged strains, 3 h
YIL066C = settings: S. cerevisiae GFP-tagged strains, 3 h
YIL069C = settings: S. cerevisiae GFP-tagged strains, 3 h
YJL056C = settings: S. cerevisiae GFP-tagged strains, 3 h
YJL144W = settings: S. cerevisiae GFP-tagged strains, 3 h
YJR148W = settings: S. cerevisiae GFP-tagged strains, 3 h
YKL086W = settings: S. cerevisiae GFP-tagged strains, 3 h
YKL103C = settings: S. cerevisiae GFP-tagged strains, 3 h
YKL119C = settings: S. cerevisiae GFP-tagged strains, 3 h
YKR039W = settings: S. cerevisiae GFP-tagged strains, 3 h
YKR093W = settings: S. cerevisiae GFP-tagged strains, 3 h
YKR094C = settings: S. cerevisiae GFP-tagged strains, 3 h
YLL026W = settings: S. cerevisiae GFP-tagged strains, 3 h
YLL039C = settings: S. cerevisiae GFP-tagged strains, 3 h
YLR058C = settings: S. cerevisiae GFP-tagged strains, 3 h
YLR109W = settings: S. cerevisiae GFP-tagged strains, 3 h
YLR142W = settings: S. cerevisiae GFP-tagged strains, 3 h
YLR185W = settings: S. cerevisiae GFP-tagged strains, 3 h
YLR237W = settings: S. cerevisiae GFP-tagged strains, 3 h
YLR287C-A = settings: S. cerevisiae GFP-tagged strains, 3 h
YLR367W = settings: S. cerevisiae GFP-tagged strains, 3 h
YML004C = settings: S. cerevisiae GFP-tagged strains, 3 h
YML026C = settings: S. cerevisiae GFP-tagged strains, 3 h
YML034W = settings: S. cerevisiae GFP-tagged strains, 3 h
YML063W = settings: S. cerevisiae GFP-tagged strains, 3 h
YML128C = settings: S. cerevisiae GFP-tagged strains, 3 h
YMR105C = settings: S. cerevisiae GFP-tagged strains, 3 h
YMR120C = settings: S. cerevisiae GFP-tagged strains, 3 h
YMR251W-A = settings: S. cerevisiae GFP-tagged strains, 3 h
YMR307W = settings: S. cerevisiae GFP-tagged strains, 3 h
YNL015W = settings: S. cerevisiae GFP-tagged strains, 3 h
YNL068C = settings: S. cerevisiae GFP-tagged strains, 3 h
YNL112W = settings: S. cerevisiae GFP-tagged strains, 3 h
YNL142W = settings: S. cerevisiae GFP-tagged strains, 3 h
YNL214W = settings: S. cerevisiae GFP-tagged strains, 3 h
YNR001C = settings: S. cerevisiae GFP-tagged strains, 3 h
YOL052C-A = settings: S. cerevisiae GFP-tagged strains, 3 h
YOR038C = settings: S. cerevisiae GFP-tagged strains, 3 h
YOR063W = settings: S. cerevisiae GFP-tagged strains, 3 h
YOR136W = settings: S. cerevisiae GFP-tagged strains, 3 h
YOR173W = settings: S. cerevisiae GFP-tagged strains, 3 h
YOR182C = settings: S. cerevisiae GFP-tagged strains, 3 h
YOR371C = settings: S. cerevisiae GFP-tagged strains, 3 h
YOR375C = settings: S. cerevisiae GFP-tagged strains, 3 h
YPL111W = settings: S. cerevisiae GFP-tagged strains, 3 h
YPL131W = settings: S. cerevisiae GFP-tagged strains, 3 h
YPL150W = settings: S. cerevisiae GFP-tagged strains, 3 h
YPL220W = settings: S. cerevisiae GFP-tagged strains, 3 h
YPL265W = settings: S. cerevisiae GFP-tagged strains, 3 h
YPR132W = settings: S. cerevisiae GFP-tagged strains, 3 h
YPR145W = settings: S. cerevisiae GFP-tagged strains, 3 h
YPR184W = settings: S. cerevisiae GFP-tagged strains, 3 h

Chain of General amino acid permease AGP1 (Saccharomyces cerevisiae S288c) (P25376 whole entry, looked up): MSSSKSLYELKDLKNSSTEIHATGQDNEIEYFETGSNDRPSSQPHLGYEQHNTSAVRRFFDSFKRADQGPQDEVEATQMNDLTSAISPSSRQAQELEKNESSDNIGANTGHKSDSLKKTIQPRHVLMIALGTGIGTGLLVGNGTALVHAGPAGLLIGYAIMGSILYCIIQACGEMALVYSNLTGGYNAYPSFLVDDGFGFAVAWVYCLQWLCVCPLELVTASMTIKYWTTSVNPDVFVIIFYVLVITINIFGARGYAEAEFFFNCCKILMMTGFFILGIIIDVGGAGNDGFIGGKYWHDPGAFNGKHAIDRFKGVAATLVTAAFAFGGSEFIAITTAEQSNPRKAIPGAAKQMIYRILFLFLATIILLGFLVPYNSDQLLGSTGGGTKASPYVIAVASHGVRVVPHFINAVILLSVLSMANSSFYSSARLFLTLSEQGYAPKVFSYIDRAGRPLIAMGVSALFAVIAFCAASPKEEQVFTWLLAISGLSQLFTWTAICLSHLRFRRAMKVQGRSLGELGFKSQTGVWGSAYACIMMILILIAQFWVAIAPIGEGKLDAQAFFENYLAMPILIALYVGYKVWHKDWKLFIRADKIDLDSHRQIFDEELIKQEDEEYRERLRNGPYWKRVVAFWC

## CO[C@H]1C[C@@H]2CC[C@@H](C)[C@@](O)(O2)C(=O)C(=O)N2CCCC[C@H]2C(=O)O[C@H]([C@H](C)C[C@@H]2CC[C@@H](O)[C@H](OC)C2)CC(=O)[C@H](C)/C=C(\C)[C@@H](O)[C@@H](OC)C(=O)[C@H](C)C[C@H](C)/C=C/C=C/C=C/1C
[1]
  GFP ratio to DMSO: 2.27
YAL060W
  GFP ratio to DMSO: 3.23
YAL061W
  GFP ratio to DMSO: 2.14
YBL087C
  GFP ratio to DMSO: 0.33
YBR072W
  GFP ratio to DMSO: 4.94
YBR139W
  GFP ratio to DMSO: 1.61
YBR208C
  GFP ratio to DMSO: 3.04
YBR248C
  GFP ratio to DMSO: 1.11 (inactive)
YCL064C
  GFP ratio to DMSO: 1.28 (inactive)
YCR002C
  GFP ratio to DMSO: 0.98 (inactive)
YCR005C
  GFP ratio to DMSO: 4.59
YDL130W
  GFP ratio to DMSO: 0.717 (inactive)
YDL204W
  GFP ratio to DMSO: 1.4 (inactive)
YDL205C
  GFP ratio to DMSO: 0.898 (inactive)
YDR070C
  GFP ratio to DMSO: 4.12
YDR382W
  GFP ratio to DMSO: 0.783 (inactive)
YDR399W
  GFP ratio to DMSO: 0.946 (inactive)
YDR453C
  GFP ratio to DMSO: 2.58
YEL007W
  GFP ratio to DMSO: 1.05 (inactive)
YEL060C
  GFP ratio to DMSO: 2.55
YEL063C
  GFP ratio to DMSO: 1.7
YEL071W
  GFP ratio to DMSO: 2.11
YER081W
  GFP ratio to DMSO: 1.08 (inactive)
YER117W
  GFP ratio to DMSO: 0.304
YER151C
  GFP ratio to DMSO: 1.03 (inactive)
YER156C
  GFP ratio to DMSO: 1.05 (inactive)
YFR031C-A
  GFP ratio to DMSO: 0.481
YFR053C
  GFP ratio to DMSO: 1.66
YGL036W
  GFP ratio to DMSO: 0.919 (inactive)
YGL062W
  GFP ratio to DMSO: 2.27
YGL135W
  GFP ratio to DMSO: 0.682 (inactive)
YGL147C
  GFP ratio to DMSO: 0.682 (inactive)
YGR019W
  GFP ratio to DMSO: 1.93
YGR034W
  GFP ratio to DMSO: 0.689 (inactive)
YGR088W
  GFP ratio to DMSO: 2.06
YGR121C
  GFP ratio to DMSO: 1.72
YHL021C
  GFP ratio to DMSO: 2.52
YHR018C
  GFP ratio to DMSO: 1.54
YHR087W
  GFP ratio to DMSO: 2.24
YHR141C
  GFP ratio to DMSO: 0.777 (inactive)
YHR144C
  GFP ratio to DMSO: 0.869 (inactive)
YHR203C
  GFP ratio to DMSO: 0.685 (inactive)
YIL043C
  GFP ratio to DMSO: 0.996 (inactive)
YIL051C
  GFP ratio to DMSO: 1.4 (inactive)
YIL052C
  GFP ratio to DMSO: 0.619
YIL066C
  GFP ratio to DMSO: 1.17 (inactive)
YIL069C
  GFP ratio to DMSO: 0.171
YJL056C
  GFP ratio to DMSO: 0.954 (inactive)
YJL144W
  GFP ratio to DMSO: 2.03
YJR148W
  GFP ratio to DMSO: 3.38
YKL086W
  GFP ratio to DMSO: 1.49 (inactive)
YKL103C
  GFP ratio to DMSO: 2.8
YKL119C
  GFP ratio to DMSO: 1.03 (inactive)
YKR039W
  GFP ratio to DMSO: 12.7
YKR093W
  GFP ratio to DMSO: 3.56
YKR094C
  GFP ratio to DMSO: 0.484
YLL026W
  GFP ratio to DMSO: 2.05
YLL039C
  GFP ratio to DMSO: 1.77
YLR058C
  GFP ratio to DMSO: 1.04 (inactive)
YLR109W
  GFP ratio to DMSO: 1.43 (inactive)
YLR142W
  GFP ratio to DMSO: 1.41 (inactive)
YLR185W
  GFP ratio to DMSO: 0.705 (inactive)
YLR237W
  GFP ratio to DMSO: 0.864 (inactive)
YLR287C-A
  GFP ratio to DMSO: 0.625
YLR367W
  GFP ratio to DMSO: 0.635
YML004C
  GFP ratio to DMSO: 1.5 (inactive)
YML026C
  GFP ratio to DMSO: 0.289
YML034W
  GFP ratio to DMSO: 1.04 (inactive)
YML063W
  GFP ratio to DMSO: 0.714 (inactive)
YML128C
  GFP ratio to DMSO: 2.56
YMR105C
  GFP ratio to DMSO: 2.65
YMR120C
  GFP ratio to DMSO: 0.612
YMR251W-A
  GFP ratio to DMSO: 1.96
YMR307W
  GFP ratio to DMSO: 0.685 (inactive)
YNL015W
  GFP ratio to DMSO: 1.88
YNL068C
  GFP ratio to DMSO: 1.06 (inactive)
YNL112W
  GFP ratio to DMSO: 0.73 (inactive)
YNL142W
  GFP ratio to DMSO: 15.6
YNL214W
  GFP ratio to DMSO: 1.06 (inactive)
YNR001C
  GFP ratio to DMSO: 1.7
YOL052C-A
  GFP ratio to DMSO: 2.68
YOR038C
  GFP ratio to DMSO: 1.21 (inactive)
YOR063W
  GFP ratio to DMSO: 0.703 (inactive)
YOR136W
  GFP ratio to DMSO: 1.51
YOR173W
  GFP ratio to DMSO: 1.86
YOR182C
  GFP ratio to DMSO: 0.576
YOR371C
  GFP ratio to DMSO: 1.06 (inactive)
YOR375C
  GFP ratio to DMSO: 1.78
YPL111W
  GFP ratio to DMSO: 2.16
YPL131W
  GFP ratio to DMSO: 0.781 (inactive)
YPL150W
  GFP ratio to DMSO: 1.04 (inactive)
YPL220W
  GFP ratio to DMSO: 0.887 (inactive)
YPL265W
  GFP ratio to DMSO: 3.22
YPR132W
  GFP ratio to DMSO: 0.366
YPR145W
  GFP ratio to DMSO: 2.19
YPR184W
  GFP ratio to DMSO: 2.01
